According to US20230417736A1, “MONITORING MEMBRANE PROTEIN TRAFFICKING FOR DRUG DISCOVERY AND DRUG DEVELOPMENT” (UNIVERSITY OF HOUSTON SYSTEM, priority 2020, published 2023):

Target: T1, human β2AR (Homo sapiens, UniProt P07550)
T1 construct: expressed in transfected cells
Assay: GPCR internalization assay using NanoBiT technology (β2AR-SmBiT with LgBiT-FYVE, early endosomes)
Assay type: cell-based
Conditions: for Internalization of GPCRs (luminescent signal) in the presence of endocytosis inhibitors: 10 μM of endocytosis inhibitors, cells pretreated, then ligand stimulation
Source text: Applicant initially focused on studying the different internalization rates of class A G-protein coupled receptors (GPCRs). For this, Applicant first established a set of GPCRs involved in a wide variety of physiological functions and diseases such as Galanin (GAL receptors), Chemokine receptors (CCR), and β-adrenergic receptors ((βAR). Applicant devised a strategy to monitor how the GPCR bound to its corresponding ligand is removed from the cell surface, subsequently localized in early endosomes, and then finally recycled into the cell membrane. To accomplish this, Applicant covalently linked a small fragment of NLuc (SmBiT) to the C-terminal of the receptor, where a flexible linker is located between the two proteins (FIGS. 9-10). This linker was designed to be composed mainly of glycine and alanine amino acids to provide flexibility and not to alter the pharmacological properties of the native receptor (FIGS. 2A-2B).
FYVE domains bind phosphatidylinositol 3-phosphate from early endosomes, in a manner that is dependent on its metal ion coordination and basic amino acids. This FYVE domain inserts into cell membranes in a pH-dependent manner, where it is composed of two small beta hairpins (or zinc knuckles) and followed by an alpha helix. Additionally, the FYVE finger binds two zinc ions where this FYVE finger has eight potential zinc coordinating cysteine positions and is characterized by having basic amino acids around the cysteines. To achieve this, the gene of the FYVE domain of the human Endofin (residues from Q739 to K806) was synthesized and covalently attached by molecular cloning into a large fragment of NLuc (LgBiT) at the N-termini (FIGS. 2A-2B).
The ability to monitor internalization in response to ligand stimulation was assessed in HEK293 cells expressing the corresponding human receptor. In the case of GPCRs, the assay was performed using the corresponding endogenous ligands (i.e., epinephrine).
HEK293 cells were maintained in Dulbecco's modified Eagle's medium (DMEM) supplemented with 10% fetal bovine serum (FBS), 100 U/ml penicillin G, and […] streptomycin (Invitrogen; Carlsbad, CA, USA). At 1 day before transfection, the cells were seeded in 96-well plates at a density of 2.5×10^4 cells per well. […] After a 10 minute incubation, 25 μl substrate (furimazine) was added, and once every minute subsequent luminescence measurements were taken for 5-10 minutes for signal stabilization. A total of 10 μl of ligand, antibody, or viral suspension was then added to each well and luminescence measurements were recorded immediately and once every minute for 1-3 hours (Synergy 2 Multi-Mode Microplate Reader BioTek, Winooski, VT, USA).

T1 sequence (P07550 whole entry): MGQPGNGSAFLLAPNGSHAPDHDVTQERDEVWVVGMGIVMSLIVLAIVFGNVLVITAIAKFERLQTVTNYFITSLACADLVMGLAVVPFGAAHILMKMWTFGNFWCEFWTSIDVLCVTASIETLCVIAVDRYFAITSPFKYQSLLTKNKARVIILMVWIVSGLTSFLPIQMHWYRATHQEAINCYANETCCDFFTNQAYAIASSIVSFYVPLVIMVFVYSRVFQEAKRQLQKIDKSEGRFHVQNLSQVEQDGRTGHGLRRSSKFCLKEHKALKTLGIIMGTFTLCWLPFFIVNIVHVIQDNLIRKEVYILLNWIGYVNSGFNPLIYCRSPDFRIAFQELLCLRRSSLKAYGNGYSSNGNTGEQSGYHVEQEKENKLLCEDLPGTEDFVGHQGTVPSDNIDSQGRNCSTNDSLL

SMILES | Internalization of GPCRs (luminescent signal) in the presence of endocytosis inhibitors | Blue luminescent signal (β2AR translocation into early endosomes) in response to the agonist (different concentrations of epinephrine)
Cn1c(CNc2cccc(C(=O)NCc3ccccc3C(F)(F)F)c2)nnc1-c1ccncc1 [Cmpd101] | inhibited | –
O=C(N/N=C/c1ccc(O)c(O)c1)c1cc2ccccc2cc1O [Dynasore] | inhibited | –
O=C1N=C(NS(=O)(=O)c2cccc3ccccc23)SC1=Cc1ccc(Br)cc1 [PiTStop] | inhibited | –
CNC[C@H](O)c1ccc(O)c(O)c1 [epinephrine] | – | increased the blue luminescent signal in a concentration-dependent manner
